Laboratory results as given in ChEMBL document CHEMBL1131292, “Synthesis and pharmacology of a new AMPA-kainate receptor agonist with potent convulsant activity” (J Med Chem, 1998).

Experiments:
[1] = tested on: Mus musculus; experiment: In Vivo evaluation of the Compound administered through icv for the Clonic seizure presence along with the antagonist GYKI 52466 in mice.; assay type: functional
[2] = tested on: Mus musculus; experiment: In Vivo evaluation of the Compound administered through icv for the Clonic seizure presence of the compound along with the antagonist NBQX in mice.; assay type: functional
[3] = tested on: Mus musculus; experiment: In Vivo evaluation of the Compound administered through icv for tonicity in presence of the compound along with the antagonist NBQX in mice.; assay type: functional
[4] = tested on: Mus musculus; experiment: In Vivo evaluation of the Compound administered through icv for the Clonic seizure presence alone in mice.; assay type: functional
[5] = tested on: Mus musculus; experiment: In Vivo evaluation of the Compound administered through icv for tonicity in presence along with […] in mice.; assay type: functional
[6] = tested on: Mus musculus; experiment: In Vivo evaluation of the Compound administered through icv for tonicity in presence along with the antagonist GYKI 52466 in mice.; assay type: functional
[7] = tested on: Mus musculus; experiment: In Vivo evaluation of the Compound administered through icv for the Clonic seizure presence along with […] in mice.; assay type: functional
[8] = tested on: Mus musculus; experiment: In Vivo evaluation of the Compound administered through icv for tonicity in presence alone in mice.; assay type: functional
[9] = biological target: Glutamate NMDA receptor; experiment: Compound was evaluated for binding affinity at N-methyl-D-aspartate glutamate receptor using [3H]CPP as radioligand; assay type: protein-complex assay
[10] = tested on: Mus musculus; experiment: In Vivo evaluation of the Compound administered through icv for the tonicity in presence along with the antagonist GYKI 52466 in mice.; assay type: functional
[11] = tested on: Mus musculus; experiment: In Vivo evaluation of the Compound administered through icv for the Clonic seizure presence along with the antagonist NBQX in mice.; assay type: functional
[12] = tested on: Mus musculus; experiment: In Vivo evaluation of the Compound administered through icv for the Clonic seizure presence along with the antagonist GYKI 52466 in mice; assay type: functional
[13] = biological target: Glutamate receptor ionotropic, kainate; experiment: Compound was evaluated for binding affinity at Ionotropic glutamate receptor kainate using [3H]- KAIN as radioligand; assay type: protein-complex assay
[14] = biological target: Glutamate receptor ionotropic, AMPA (Rattus norvegicus, UniProt P19490+P19491+P19492+P19493)
Description: Compound was evaluated for binding affinity at Ionotropic glutamate receptor AMPA using [3H]AMPA as radioligand

[15] = tested on: Mus musculus; experiment: In Vivo evaluation of the Compound administered through icv for tonicity in presence along with the antagonist NBQX in mice.; assay type: functional
[16] = tested on: Mus musculus; experiment: In Vivo evaluation of the Compound administered through icv for the tonicity in presence alone in mice.; assay type: functional
[17] = Potency ratio (the ratio between the CD50 value of the drug in the presence of antagonist versus its CD50 value) for compound in presence of CPP; range 2.9-3.4; assay type: functional
[18] = Potency ratio (the ratio between the CD50 value of the drug in the presence of antagonist versus its CD50 value) for compound in presence of CPP compound in presence of NBQX; range 1.1-1.3; assay type: functional
[19] = Potency ratio (the ratio between the CD50 value of the drug in the presence of antagonist versus its CD50 value) for compound in presence of GYKI 52466; range 1.4-2.1; assay type: functional
[20] = tested on: Mus musculus; experiment: In Vivo evaluation of the Compound administered through icv for the Clonic seizure presence along with […] in mice. (+/-95% confidence limits within parenthesis); nM per mouse; assay type: functional
[21] = tested on: Mus musculus; experiment: In Vivo evaluation of the Compound administered through icv for the for tonicity in presence along with the antagonist GYKI 52466 in mice; assay type: functional
[22] = tested on: Mus musculus; experiment: In Vivo evaluation of the Compound administered through icv for the for tonicity in presence along with […] in mice; assay type: functional
[23] = tested on: Mus musculus; experiment: In Vivo evaluation of the Compound administered through icv for tonicity in presence alone in mice; assay type: functional
[24] = tested on: Mus musculus; experiment: In Vivo evaluation of the Compound administered through icv for the Clonic seizure presence of the compound along with the antagonist NBQX in mice; assay type: functional
[25] = tested on: Mus musculus; experiment: In Vivo evaluation of the Compound administered through icv for the for tonicity in presence of the compound along with the antagonist NBQX in mice; assay type: functional

Row | Structure (SMILES) | CD50 [1] | CD50 [4] | CD50 [5] | CD50 [7] | IC50 [9] | IC50 [13] | IC50 [14] | also measured
1 | C=C(C)[C@H]1CN[C@H](C(=O)O)[C@H]1CC(=O)O [KAINIC ACID] | 0.071 nmol/mouse | 0.015 nmol/mouse | 0.071 nmol/mouse | 0.024 nmol/mouse | > 100 µM | – | – | CD50 [2]: 0.094 nmol; CD50 [3]: 0.468 nmol/mouse; CD50 [6]: 0.232 nmol/mouse; CD50 [8]: 0.032 nmol/mouse
2 | O=C(O)C1=NO[C@H]2CN[C@H](C(=O)O)[C@@H]12 | – | 0.027 nmol/mouse | 0.19 nmol | 0.039 nmol/mouse | > 100 µM | 0.48 µM | 1.3 µM | CD50 [10]: 1.26 nM; CD50 [11]: 0.43 nM; CD50 [12]: 0.5 nM; CD50 [15]: 0.99 nM
3 | O=C(O)C1=NO[C@H]2[C@@H]1CN[C@@H]2C(=O)O | 17.5 nmol/mouse | 8.48 nmol/mouse | – | – | 23 µM | 48 µM | 24.7 µM | CD50 [16]: 39.9 nM; Ratio [17]: 2.9; Ratio [18]: 1.1; Ratio [19]: 1.4; CD50 [20]: 24.82 nM
4 | Cc1onc(O)c1C[C@H](N)C(=O)O [(S)-AMPA] | 7.61 nmol/mouse | 1.76 nmol/mouse | – | 2.69 nmol/mouse | – | – | – | CD50 [21]: 16.1 nmol; CD50 [22]: 3.18 nM; CD50 [23]: 2.9 nmol; CD50 [24]: 6.7 nmol/mouse; CD50 [25]: 15.7 nmol
